Reference: PMC12682127, “Structural basis for inhibition of Mycobacterium tuberculosis α-methylacyl-CoA racemase by 2-arylthiopropanoyl-CoA inhibitor analogs” (The Journal of Biological Chemistry, 2025)
Like-named read-outs stand apart in the source and are kept apart here.

Columns and labels:
[1] = target: T1, Mycobacterium tuberculosis α-methylacyl-CoA racemase (MCR) (Mycobacterium tuberculosis, UniProt O06543); parameters: made in house; method as in PMID 40447188; conditions: cited from earlier work
[2] = target: T1, Mycobacterium tuberculosis α-methylacyl-CoA racemase (MCR); test: MCR inhibition, colorimetric assay, dose-response curves; type: biochemical; parameters: made in house
[3] = target: T1, Mycobacterium tuberculosis α-methylacyl-CoA racemase (MCR); test: Jump-dilution experiment for reversibility of MCR inhibition; type: biochemical; parameters: made in house; conditions: inhibitor at 24 × or 0.24 × IC50, 12 min
Description: Inhibition assays were conducted as previously described ([17]) in 50 mM NaH2PO4-NaOH, 100 mM NaCl, 1 mM EDTA (pH 7.4), and 3% (v/v) dimethylsulfoxide. Product formation was monitored at 354 nm. […] Enzyme and inhibitor were preincubated for 10 min before adding substrate to initiate the assay. Rates were determined using ICEKAT ([50], [51]), and dose-response curves ([36], [37]) were fitted using SigmaPlot 15.0 with a 4-parameter logistic model. Data are reported as pIC50 ± SEM (n = 3).

[4] = target: T1, Mycobacterium tuberculosis α-methylacyl-CoA racemase (MCR); test: Inhibition mode determination / Ki (kinetic analysis, colorimetric assay); type: biochemical; parameters: made in house
Description: Enzyme and inhibitor solutions were pre-incubated for 10 min before adding these mixtures to the substrate to initiate the assay. Rates were determined using ICEKAT ([50], [51]) and analyzed with SigmaPlot 15.0 using Simple EK and enzyme kinetics macros ([53]). The best-fitting inhibition model was selected based on graphical analysis and statistical ranking of models. The Ki value was determined as the mean ± SEM from three independent repeats.

[5] = target: T1, Mycobacterium tuberculosis α-methylacyl-CoA racemase (MCR); conditions: mean ± SEM, n = 3; cited from earlier work
[6] = Log10 IC50, repeat 1, 4-parameter logistic fit coefficient
[7] = Log10 IC50, repeat 2, 4-parameter logistic fit coefficient
[8] = Log10 IC50, repeat 3, 4-parameter logistic fit coefficient
[9] = pIC50, mean ± SEM, n = 3, MCR 3.12 nM, substrate 96 μM, 10 min preincubation, pH 7.4
[10] = repeat 1, 4-parameter logistic fit coefficient
[11] = repeat 2, 4-parameter logistic fit coefficient
[12] = repeat 3, 4-parameter logistic fit coefficient

T1 sequence (O06543 whole entry): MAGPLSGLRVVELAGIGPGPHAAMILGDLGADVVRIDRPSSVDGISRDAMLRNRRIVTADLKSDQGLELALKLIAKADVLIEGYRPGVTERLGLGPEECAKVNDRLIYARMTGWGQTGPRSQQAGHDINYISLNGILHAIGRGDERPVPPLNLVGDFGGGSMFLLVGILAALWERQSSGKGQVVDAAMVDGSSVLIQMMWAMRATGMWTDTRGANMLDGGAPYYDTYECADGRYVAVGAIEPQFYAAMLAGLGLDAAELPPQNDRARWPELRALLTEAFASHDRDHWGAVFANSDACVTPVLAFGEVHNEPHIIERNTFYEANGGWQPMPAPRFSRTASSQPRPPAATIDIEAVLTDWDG

SMILES: CC(C(=O)SCCNC(=O)CCNC(=O)C(O)C(C)(C)COP(=O)(O)OP(=O)(O)OCC1OC(n2cnc3c(N)ncnc32)C(O)C1OP(=O)(O)O)c1cccc(Oc2ccccc2)c1 (racemic) [Compound 1, (±)-Fenoprofenoyl-CoA]
- pIC50 [1]: 5.43 ± 0.07

SMILES: CC(Sc1cccc(OCc2ccccc2)c1)C(=O)SCCNC(=O)CCNC(=O)C(O)C(C)(C)COP(=O)(O)OP(=O)(O)OCC1OC(n2cnc3c(N)ncnc32)C(O)C1OP(=O)(O)O (racemic) [Compound 2, (±)-2-(3-Benzyloxyphenylthio)propanoyl-CoA]
- IC50 [2, 6]: 1.63 µM
- IC50 [2, 7]: 0.619 µM
- IC50 [2, 8]: 0.487 µM
- IC50 [2, 9]: 0.794 µM
- Hillslope [2, 10]: -0.7954
- Hillslope [2, 11]: -0.7479
- Hillslope [2, 12]: -0.8395

SMILES: COc1cccc(COc2cccc(SC(C)C(=O)SCCNC(=O)CCNC(=O)C(O)C(C)(C)COP(=O)(O)OP(=O)(O)OCC3OC(n4cnc5c(N)ncnc54)C(O)C3OP(=O)(O)O)c2)c1 (racemic) [Compound 3, (±)-2-(3-(3-Methoxybenzyloxy)phenylthio)propanoyl-CoA]
- IC50 [2, 6]: 0.401 µM
- IC50 [2, 7]: 0.425 µM
- IC50 [2, 8]: 0.228 µM
- IC50 [2, 9]: 0.339 µM
- Hillslope [2, 10]: -0.6534
- Hillslope [2, 11]: -0.5594
- Hillslope [2, 12]: -0.7275

SMILES: CC(Sc1cccc(OCCc2ccccc2)c1)C(=O)SCCNC(=O)CCNC(=O)C(O)C(C)(C)COP(=O)(O)OP(=O)(O)OCC1OC(n2cnc3c(N)ncnc32)C(O)C1OP(=O)(O)O (racemic) [Compound 4, (±)-2-(3-(2-Phenylethoxy)phenylthio)propanoyl-CoA]
- IC50 [2, 6]: 0.791 µM
- IC50 [2, 7]: 0.891 µM
- IC50 [2, 8]: 0.839 µM
- IC50 [2, 9]: 0.832 µM
- Hillslope [2, 10]: -0.6564
- Hillslope [2, 11]: -0.8291
- Hillslope [2, 12]: -0.8501

SMILES: COc1cccc(CCOc2cccc(SC(C)C(=O)SCCNC(=O)CCNC(=O)C(O)C(C)(C)COP(=O)(O)OP(=O)(O)OCC3OC(n4cnc5c(N)ncnc54)C(O)C3OP(=O)(O)O)c2)c1 (racemic) [Compound 5, (±)-2-(3-(2-(3-Methoxyphenyl)ethoxy)phenylthio)propanoyl-CoA]
- IC50 [2, 6]: 1.47 µM
- IC50 [2, 7]: 1.26 µM
- IC50 [2, 8]: 1.49 µM
- IC50 [2, 9]: 1.41 µM
- Hillslope [2, 10]: -1.0666
- Hillslope [2, 11]: -1.0398
- Hillslope [2, 12]: -0.8398

SMILES: CC(Sc1cccc(OCCc2cccc(C(F)(F)F)c2)c1)C(=O)SCCNC(=O)CCNC(=O)C(O)C(C)(C)COP(=O)(O)OP(=O)(O)OCC1OC(n2cnc3c(N)ncnc32)C(O)C1OP(=O)(O)O (racemic) [Compound 6, (±)-2-(3-(2-(3-Trifluoromethylphenyl)ethoxy)phenylthio)propanoyl-CoA]
- Potency relative to ibuprofenoyl-CoA, from pIC50 [2]: at least 13.5 times
- IC50 [2, 6]: 0.134 µM
- IC50 [2, 7]: 0.109 µM
- IC50 [2, 8]: 0.316 µM
- IC50 [2, 9]: 0.166 µM
- Hillslope [2, 10]: -0.6535
- Hillslope [2, 11]: -0.6960
- Hillslope [2, 12]: -1.0454
- Reversibility of inhibition [3]: reversible inhibition
- Ki ([4]; mean ± SEM, n = 3, competitive model): 0.238 ± 0.039 µM
- Ki ([4]; repeat 1): 0.19 µM
- Ki ([4]; repeat 2): 0.315 µM
- Ki ([4]; repeat 3): 0.21 µM
- Mode of inhibition ([4]; Lineweaver-Burk plot / kinetic analysis): competitive inhibition

SMILES: CC(C)COc1cccc(SC(C)C(=O)SCCNC(=O)CCNC(=O)C(O)C(C)(C)COP(=O)(O)OP(=O)(O)OCC2OC(n3cnc4c(N)ncnc43)C(O)C2OP(=O)(O)O)c1 (racemic) [Compound 7, (±)-2-(3-(2-Methylpropoxy)phenylthio)propanoyl-CoA]
- IC50 [2, 6]: 4.03 µM
- IC50 [2, 7]: 3.32 µM
- IC50 [2, 8]: 4.76 µM
- IC50 [2, 9]: 3.98 µM
- Hillslope [2, 10]: -0.7207
- Hillslope [2, 11]: -0.6683
- Hillslope [2, 12]: -0.7565

SMILES: CC(Sc1ccc(OCc2ccccc2)cc1)C(=O)SCCNC(=O)CCNC(=O)C(O)C(C)(C)COP(=O)(O)OP(=O)(O)OCC1OC(n2cnc3c(N)ncnc32)C(O)C1OP(=O)(O)O (racemic) [Compound 8, (±)-2-(4-Benzyloxyphenylthio)propanoyl-CoA]
- IC50 [2, 6]: 2.62 µM
- IC50 [2, 7]: 2.61 µM
- IC50 [2, 8]: 2.8 µM
- IC50 [2, 9]: 2.69 µM
- Hillslope [2, 10]: -0.8760
- Hillslope [2, 11]: -0.9668
- Hillslope [2, 12]: -0.9845

SMILES: COc1cccc(COc2ccc(SC(C)C(=O)SCCNC(=O)CCNC(=O)C(O)C(C)(C)COP(=O)(O)OP(=O)(O)OCC3OC(n4cnc5c(N)ncnc54)C(O)C3OP(=O)(O)O)cc2)c1 (racemic) [Compound 9, (±)-2-(4-(3-Methoxybenzyloxy)phenylthio)propanoyl-CoA]
- IC50 [2, 6]: 2.67 µM
- IC50 [2, 7]: 2.25 µM
- IC50 [2, 8]: 2.84 µM
- IC50 [2, 9]: 2.57 µM
- Hillslope [2, 10]: -1.2477
- Hillslope [2, 11]: -0.8652
- Hillslope [2, 12]: -1.1180

SMILES: CC(Sc1ccc(OCCc2ccccc2)cc1)C(=O)SCCNC(=O)CCNC(=O)C(O)C(C)(C)COP(=O)(O)OP(=O)(O)OCC1OC(n2cnc3c(N)ncnc32)C(O)C1OP(=O)(O)O (racemic) [Compound 10, (±)-2-(4-(2-Phenylethoxy)phenylthio)propanoyl-CoA]
- IC50 [2, 6]: 2.14 µM
- IC50 [2, 7]: 3.02 µM
- IC50 [2, 8]: 2.49 µM
- IC50 [2, 9]: 2.51 µM
- Hillslope [2, 10]: -0.9669
- Hillslope [2, 11]: -1.3506
- Hillslope [2, 12]: -1.1651

SMILES: COc1cccc(CCOc2ccc(SC(C)C(=O)SCCNC(=O)CCNC(=O)C(O)C(C)(C)COP(=O)(O)OP(=O)(O)OCC3OC(n4cnc5c(N)ncnc54)C(O)C3OP(=O)(O)O)cc2)c1 (racemic) [Compound 11, (±)-2-(4-(2-(3-Methoxyphenyl)ethoxy)phenylthio)propanoyl-CoA]
- IC50 [2, 6]: 0.669 µM
- IC50 [2, 7]: 1.31 µM
- IC50 [2, 8]: 0.598 µM
- IC50 [2, 9]: 0.813 µM
- Hillslope [2, 10]: -0.8553
- Hillslope [2, 11]: -1.1060
- Hillslope [2, 12]: -0.6966

SMILES: CC(Sc1ccc(OCCc2cccc(C(F)(F)F)c2)cc1)C(=O)SCCNC(=O)CCNC(=O)C(O)C(C)(C)COP(=O)(O)OP(=O)(O)OCC1OC(n2cnc3c(N)ncnc32)C(O)C1OP(=O)(O)O (racemic) [Compound 12, (±)-2-(4-(2-(3-Trifluoromethylphenethoxy)phenylthio)propanoyl-CoA]
- IC50 [2, 6]: 0.828 µM
- IC50 [2, 7]: 0.706 µM
- IC50 [2, 8]: 1.04 µM
- IC50 [2, 9]: 0.851 µM
- Hillslope [2, 10]: -1.1570
- Hillslope [2, 11]: -1.0035
- Hillslope [2, 12]: -1.3522

SMILES: CC(C)COc1ccc(SC(C)C(=O)SCCNC(=O)CCNC(=O)C(O)C(C)(C)COP(=O)(O)OP(=O)(O)OCC2OC(n3cnc4c(N)ncnc43)C(O)C2OP(=O)(O)O)cc1 (racemic) [Compound 13, (±)-2-(4-(2-Methylpropoxy)phenylthio)propanoyl-CoA]
- IC50 [2, 6]: 2.07 µM
- IC50 [2, 7]: 1.93 µM
- IC50 [2, 8]: 1.64 µM
- IC50 [2, 9]: 1.86 µM
- Hillslope [2, 10]: -0.7177
- Hillslope [2, 11]: -0.8209
- Hillslope [2, 12]: -0.7335

SMILES: CCCCCOc1ccc(SC(C)C(=O)SCCNC(=O)CCNC(=O)C(O)C(C)(C)COP(=O)(O)OP(=O)(O)OCC2OC(n3cnc4c(N)ncnc43)C(O)C2OP(=O)(O)O)cc1 (racemic) [Compound 14, (±)-2-((4-(pentyloxy)phenyl)thio)propanoyl-CoA]
- IC50 [2, 6]: 0.913 µM
- IC50 [2, 7]: 0.69 µM
- IC50 [2, 8]: 0.846 µM
- IC50 [2, 9]: 0.813 µM
- Hillslope [2, 10]: -0.6352
- Hillslope [2, 11]: -0.8783
- Hillslope [2, 12]: -0.7880

SMILES: CC(C)Cc1ccc(C(C)C(=O)SCCNC(=O)CCNC(=O)C(O)C(C)(C)COP(=O)(O)OP(=O)(O)OCC2OC(n3cnc4c(N)ncnc43)C(O)C2OP(=O)(O)O)cc1 (centres unmarked) [ibuprofenoyl-CoA]
- Ki [5]: 3.04 ± 0.34 µM
- pIC50 [1]: 5.65 ± 0.05
